Assay results from publication PMC8901748, “A novel prostaglandin E receptor 4 (EP4) small molecule antagonist induces articular cartilage regeneration” (Cell Discovery, 2022).

Experiments:
[1] = test system: articular cartilage defect; assay: Microfracture (MF) surgery-induced cartilage defect (CD) rat model; assay type: in vivo, Sprague-Dawley (SD) rats; details: hydrogel containing compound; for Cartilage regeneration, appearance of the defect: 6 weeks of post-surgery
Method: Ca(NO3)2·4H2O was obtained from Sinopharm Chemical Reagent. Waxy starch (amylopectin more than 90%) was purchased from Qinhuangdao Lihua Starch. For the preparation of starch hydrogels, a fixed water-to-starch mass ratio of 5 was used, and the crosslinker Ca(NO3)2·4H2O was dissolved in the starch solution. The mixture was stirred at 60 °C for 1 h to obtain a viscous gel. The starch hydrogel prepared with Ca(NO3)2·4H2O and Waxy starch was named as 14 Gel. The hydrogel is sterilized by UV for 30 min and then used. HL-43 and Grapiprant were each dissolved in the DMSO solvent (100 mM). Compound/14 Gel was prepared by mixing the solutions at a weight ratio of 1/10 (w/w).
Thirty-six male Sprague-Dawley (SD) rats (280–300 g) were randomized into three groups (each group n = 4 rats for each time point), […] were used as controls (n = 4). After anesthetizing with 3.5% chloral hydrate (10 ml/kg), the rats were fixed on the operating table in supine position and the skin was prepared and disinfected. A 2 cm longitudinal incision along the medial margin of the patella of the right knee was made with a scalpel and then the capsule was open to expose the articular cartilage surface. A manual drill with a diameter of 2 mm was used to drill holes in the femoral intercondylar fossa of the rat (2 mm × 2 mm). After washing with saline, the gauze was pressed and 100 μl 14 Gel containing appropriate drugs or vehicle were injected. After the injection, the compression flexes and compresses were applied several times to spread the gel throughout the knee joint. The ligaments and skin were sutured. After 2, 4, and 6 weeks, the repaired articular cartilage was histologically analyzed and correlation was scored.

[2] = test system: articular cartilage defect; assay: DMM surgery-induced CD mouse model; assay type: in vivo, mice (strain C57/BL/6); details: Grapiprant 30 mg/kg, HL-43 10 mg/kg, compared to vehicle
From the text: EP4^f/f mice[67] were crossed with the Col2-cre strain to generate Col2-cre; EP4^f/f (EP4^Col2) mice, or were crossed with Aggrecan-creERT2[68] mice to generate EP4^f/f; Aggrecan-CreERT2 (EP4^AcanERT2) mice. Mice were maintained at the animal center of East China Normal University. All mouse experiments were approved by Ethics Committee at East China Normal University. Mice of the same genetic background were generated and raised under identical conditions. Sex-matched littermate mice were compared. For the DMM surgery-induced CD mouse model, WT mice (strain C57/BL/6) or EP4^Acan mice were used, n = 5 for each group. DMM surgery was carried out as previous described using 10-week-old male mice[69],[70]; while Sham-operated mice were used as controls. Knee joints were collected for histological analysis 6 or 8 weeks after surgery. Osteoarthritis Research Society International (OARSI) histopathology grading system was used to evaluate the sections, six sections of the articular cartilage of each mouse were evaluated. Synovitis was assessed by the synovitis score. Therapy with oral EP4 inhibitors was initiated one day after surgery and continued for 8 weeks, n = 8 for each group. EP4 inhibitors and Celecoxib were dissolved in carboxymethylcellulose sodium which is prepared at the concentration of 0.5%, and vehicle contained carboxymethylcellulose sodium alone. The vehicle, Celecoxib, Grapiprant, and HL-43 were delivered to mice at indicated doses daily by gavage, Celecoxib purchased from damas-beta (29322B), Grapiprant was purchased from Yuduobio, Shanghai, all other EP4 antagonists were synthesized by Dr. Hankun Zhang’s lab.
Von Frey nylon filaments were used to test the hind-paw reflex sensitivity to punctate static mechanical stimuli. Mice were habituated to the wire mesh bottom cages for 30 min before the test. von Frey filaments (Aesthesio von Frey Kit, Ugo Basile, Varese, Italy) were applied from underneath the mouse in ascending order to the mid-plantar surface of the hind paws. If withdrawal response was not induced, the next level of von Frey hair was applied until at least six withdrawals occurred in ten stimuli. This minimal force required to elicit 50% positive response was recorded as the paw withdrawal threshold[73],[74].
The paw withdrawal latency (PWL) and threshold (PWT) of thermal hyperalgesia were measured using the Ugo-Basile 37370 plantar test (Comerio, Italy). The mice were placed on a glass plate of constant temperature for 30 min before each test. Thermal thresholds of the ipsilateral hind paws were assessed three times with a 10 min interval between trials. The time(s) from irradiation to paw withdrawal was recorded as the thermal withdrawal latency. […]

zebrafish embryos = assay: Zebrafish embryo toxicity assay; parameters: Mortality / Deformities / Hatching: dose or concentration left out as unconfirmed; details: for Mortality: zebrafish embryos; for Deformities / Hatching: zebrafish
Method: A breeding stock of zebrafish at the age of 6–24 months is used for egg production. Fertilized eggs were collected and viable eggs were transferred to the 12-well plate at 26 °C. Fertilized eggs between the 4-cell and 128-cell stages be used for the toxicity test, with ten fertilized eggs per concentration and three replicates of each concentration, a total of 30 eggs for each concentration. […] DMSO was added as vehicle control. Hatching, morphological abnormalities and survival were assessed 24 and 72 h of post-fertilization (dpf) in zebrafish exposed to the chemicals.

[3] = 72 hpf, in comparison to Celecoxib and Grapiprant

Compound | Cartilage regeneration, appearance of the defect [1] | Expression of Col2, Acan, and Sox9 in knee joint [2] | Expression of Mmp13 and ColX in knee joint [2] | Mortality (zebrafish embryos; 24hpf, 0.3, n=30) | Mortality (zebrafish embryos; 24hpf, 1, n=30) | Mortality (zebrafish embryos; 24hpf, 3, n=30) | Deformities (zebrafish embryos; 72hpf, 0.3, n=30) | Hatching (zebrafish embryos; 72hpf, 0.3, n=30) | Deformities (zebrafish embryos; 72hpf, 1, n=30) | Hatching (zebrafish embryos; 72hpf, 1, n=30) | Deformities (zebrafish embryos; 72hpf, 3, n=30) | Hatching (zebrafish embryos; 72hpf, 3, n=30) | Cartilage repair, ICRS Macroscopic and ICRS Visual Histological scores ([1]; 4 weeks after MF surgery) | Mortality rate, ranking (zebrafish embryos; 24 hpf, in comparison to Celecoxib and Grapiprant) | Deformities rate, ranking (zebrafish embryos; [3]) | Hatching rate, ranking (zebrafish embryos; [3])
CCc1nc2c(C)nc(C)cc2n1-c1ccc(CCNC(=O)NS(=O)(=O)c2ccc(C)cc2)cc1 [Grapiprant] | still visible | increased | decreased | 4/30 | 14/30 | 13/30 | 4/30 | 24/30 | 3/30 | 16/30 | 4/30 | 17/30 |  |  |  | 
C[C@H](NC(=O)c1c(-c2ccccc2)nnn1CCOc1ccc(F)cc1)c1ccc(C(=O)O)cc1 [HL-43] | surfaces were smooth and cartilage layers were regenerated | increased | decreased | 0/30 | 3/30 | 6/30 | 2/30 | 28/30 | 2/30 | 26/30 | 4/30 | 23/30 | mild effects on cartilage repair | lowest mortality rate | lowest deformities rate | highest hatching rate
